This passage reports half-life results from PubChem BioAssay AID1508591.

What is called half-life is the time needed for the level to fall by half in the phase considered. Low values mean fast loss, high ones slow loss.

The conditions of the series: rat; liver microsomes; pH 7.4; 15.0 min; 1.0 µM.

`FC(F)(F)c1ccccc1-c1nc(NCc2cccc3ccccc23)c2ccccc2n1` gave a half-life of 4.33 min. To `S=C(NCCCc1cnc[nH]1)NCCCN(Cc1ccc(Cl)c(Cl)c1)c1ccc(Br)cn1` belongs > 30 min; to `CC(=O)c1c(C)[nH]c(C(=O)Nc2cccc([S+](=O)([O-])N3CCC(F)(F)CC3)c2)c1C`, 2.4 min. With `O=C(Nc1ccc(-c2nc3cc(NC(=O)c4ccccc4Cl)ccc3o2)cc1)c1ccccc1Cl`, the half-life is > 30 min. As for `Cn1c(CN2CCCC2)nc2cc(NC(=O)COc3ccc(Cl)cc3)ccc21`, the half-life is 8.4 min. With `O=C(c1cccc(F)c1)N1CCC2(CCN(Cc3cc(C(F)(F)F)cc(C(F)(F)F)c3)CC2)CC1` the figure was > 30 min.

In turn, `Cc1ccc(S(=O)(=O)Nc2cnccc2C(=O)Nc2cccc3ccccc23)cc1` displayed a half-life of 5.6 min.

For `CN1CCCC1CCOC(c1cc2nccc(C(=O)O)c2[nH]1)c1ccccc1Cl` (centres undefined), the half-life is > 30 min. Turning to `CCN(CC)CCCC(C)Nc1cc(/C=C/c2ccccc2Cl)nc2cc(Cl)ccc12` (centres undefined), the half-life turned out to be 7.34 min. With `Cc1ccccc1CSc1nc2ncc(Br)cc2[nH]1`, the half-life was 7 min. `COc1ccc2nc(C)cc(Nc3ccc(Cl)c(Cl)c3)c2c1`: the half-life was found to be 15.5 min. This half-life lies about 2.2-fold higher than the previous one. Regarding `CN(C)CCNC(=O)c1nc(-c2ccccc2)cc2[nH]ccc12`, the half-life was determined as 1.92 min. Compared with the last molecule, the half-life is about 8.1-fold lower.

`Cc1ccc(S(=O)(=O)N2CCN(C(=O)c3cc4c(s3)CCC4)CC2)cc1` displayed a half-life of 1.58 min.

Take `COc1ccc(-n2nc(C3CCN(C(=O)c4ccccc4)CC3)[nH]c2=O)cc1`: the half-life was > 30 min. To `CC1=C(C(=O)Nc2ccccc2)C(c2ccccc2Cl)N=C(Nc2nc3ccccc3o2)N1` (centres undefined) belongs 24 min; to `C[C@@]1(C(=O)Nc2ccc(F)nc2)CCCN1c1nc(Nc2cc(C3CC3)[nH]n2)c2cccn2n1`, 8.35 min.

In the case of `Cc1ccc(S(=O)(=O)Nc2ccc(Br)cc2C(=O)Nc2nc(-c3ccccc3)cs2)cc1`, the half-life worked out at 8.9 min. With `CCOc1ccc(CCNC(=O)c2cc3ccccc3n2Cc2cc(C)cc(C)n2)cc1OCC`, the half-life amounted to 1.7 min.

Molecule `Cc1ccc(S(=O)(=O)Nc2cnccc2C(=O)Nc2nc(-c3ccc4c(c3)CCCC4)cs2)cc1` showed a half-life of 2.3 min. `C#CCNC(=O)c1nc(-c2ccc(Cl)nc2)c2ccccn12` returned a half-life of 24 min. Turning to `O=C(NC1CCCc2c1cnn2-c1cccc(O)c1)c1ccccn1` (centres undefined), the half-life was found to be 11.9 min. Against the preceding molecule, the half-life is about 2-fold lower. For the molecule `COc1ccc(NC(=O)c2ccccc2)cc1S(=O)(=O)Nc1ccc(Br)cc1`, the half-life came out at 7.7 min. As for `Cc1sc(NC(=O)Cc2ccc3c(c2)OCO3)nc1-c1ccc2c(c1)CCN2C(=O)c1ccccc1C(F)(F)F`, the half-life is > 30 min. On to `COc1cc(-c2nc(-c3ccccc3)c(-c3cccs3)[nH]2)cc(OC)c1O`, for which the half-life was > 30 min.

As to `COc1ncccc1-c1cc2c(ccn2C(C)C)c(C(=O)NCc2c(C)cc(C)[nH]c2=O)n1`, the half-life is 5.49 min. In the case of `COc1cccc(CNc2ccc(S(=O)(=O)Nc3cccnc3)cc2)c1O`, the half-life stood at 15 min.

For the molecule `c1ccc2[nH]c(Nc3nc(-c4ccncc4)nc4ccccc34)nc2c1`, the half-life was 13 min. Take `C[C@H]1CN(C(=O)c2nn(C)c3ccccc23)C[C@@H]1c1nc(-c2cccnc2)no1`: the half-life was determined as 4.4 min. Consider `Cc1cccc2c(C(=O)O)cc(-c3cccs3)nc12`, for which the half-life was 8.96 min. This half-life lies about 2-fold higher than the previous one. As to `CC(C(O)c1ccc(O)cc1)N1CCC(Cc2ccccc2)CC1` (centres undefined), the half-life was found to be 2.55 min. Take `Cc1ccc(S(=O)(=O)Nc2cnccc2C(=O)Nc2nc(-c3ccc(C)c(C)c3)cs2)cc1`: the half-life is 2.1 min. The molecule `Cc1ccc(S(=O)(=O)Nc2cc(C)ccc2C(=O)Nc2nc(-c3ccccc3)cs2)cc1` gave a half-life of 2.5 min.

Molecule `O=C1Nc2ccc(-c3cccc(C(F)(F)F)c3)cc2C(=O)N2CCN(C(=O)COc3ccccc3)C[C@H]12` showed a half-life of 5.73 min. This half-life is about 2.3-fold higher than that of the molecule before. To `Cc1cc(C)nc(NC(=S)N2CCN(Cc3ccc(C(F)(F)F)cc3)CC2)c1` belongs > 30 min. The molecule `Cc1cccc(S(=O)(=O)c2cn(Cc3ccccc3)c3cc(N4CCCC(C)C4)c(F)cc3c2=O)c1` (centres undefined) registered a half-life of 2.01 min.

For `Cc1ccc(-n2nc3c(N4CCCC(C(=O)NCc5ccccc5C)C4)nnc(C)c3c2C)cc1` (centres undefined), the half-life was 2.1 min. In turn, `COC(=O)CSc1nc(-c2ccccc2)cc(-c2ccco2)c1C#N` displayed a half-life of 1 min. As for `CCc1ccccc1OC[C@@H](O)CN[C@H]1CCCc2ccccc21`, the half-life is 1.8 min. `CC(C)CS(=O)(=O)c1oc(-c2ccc(F)cc2)nc1S(=O)(=O)c1ccccc1` returned a half-life of 1.18 min. To `COc1ccnc(NC(=S)N2CCN(c3cc(C(F)(F)F)cc(C(F)(F)F)c3)CC2)c1` belongs > 30 min; to `Fc1ccc(Nc2nc(-c3ccccc3)cc(-c3ccncc3)n2)cc1F`, > 30 min. As to `CC(=O)c1cccc(-c2csc(N3CCC(C(N)=O)CC3)n2)c1`, the half-life worked out at 2.21 min. `CCOc1ccc(-c2nc(SCC(=O)Nc3ccc(C)c(C)c3)n3[nH]c(=O)cc3n2)cc1` gave a half-life of 19.9 min.

The molecule `COc1ccc(-c2csc(C3=C(O)CN(Cc4ccc(Cl)cc4)C3=N)n2)cc1OC` had a half-life of 12 min. For `Cc1cc(NS(=O)(=O)c2ccc3c(c2)CCC(=O)N3)ccc1F`, the half-life is 11.6 min. Regarding `CNc1nc(C#N)c(-c2cccc3ccccc23)o1`, the half-life amounted to 4.8 min. With `COc1ccc(-n2nc(C)c([C@@H]3C=C[C@@H](NCc4ccc(N(C)C)cc4)C3)c2C)cc1` the figure was 2.69 min; with `CCOC(=O)c1ccc(NC(=O)N2Cc3[nH]cnc3C[C@H]2c2nc(C(C)C)no2)cc1`, 6.65 min. Turning to `O=C(Nc1ncc(Cc2ccc(C(F)(F)F)cc2)s1)c1ccc(-c2cccnc2)o1`, the half-life is > 30 min.

`COc1ccc(C(=O)NC2CCCc3c2[nH]c2c(Cl)cccc32)cc1OC` (centres undefined) displayed a half-life of 22.4 min. In the case of `COc1ccc(N2Cc3cccc(C(=O)Nc4ccc(C(C)C)cc4)c3C2=O)cc1`, the half-life is > 30 min.

In turn, `CN(C)c1cc(-c2nc(Nc3ccc(F)c(F)c3)c3ccccc3n2)ccn1` yielded a half-life of 13 min. `Fc1cnc(-c2ccccc2C(F)F)nc1NCc1ccc(-n2ccnn2)cc1` yielded a half-life of 21 min. With `COc1cccc(CNc2ccc(S(=O)(=O)Nc3nc(C)cs3)cc2)c1O`, the half-life was > 30 min. The molecule `O=[S+]([O-])(Nc1ccccc1)c1ccc(NCc2cccc(C(F)(F)F)c2Cl)cc1` yielded a half-life of 13 min. With `Cc1ccc(-n2nc3c(=O)n(CCCC(=O)NC(C)c4ccccc4)nc(C)c3c2C)cc1` (centres undefined) the figure was 2.27 min; with `COc1cccc(CNc2ccc(S(=O)(=O)Nc3cnc4ccccc4c3)cc2)c1O`, 13 min; with `Cc1ccc(-c2cc(C(=O)Nc3ccc(-n4cccn4)cc3)c3ccccc3n2)cc1C`, 9.1 min.

As for `Cc1cc(C)nc(NC(=S)N2CCN(c3ccc(C(F)(F)F)cc3[N+](=O)[O-])CC2)c1`, the half-life was > 30 min. Turning to `CCNC(=O)Nc1ncc(-c2cc(-c3c(C)cc(OC)cc3C)nc(-c3cnccn3)n2)s1`, the half-life was > 30 min. `CN(Cc1ccc(/C=C/C(=O)NO)cc1)CC12CC3CC(CC(C3)C1)C2` yielded a half-life of 2.89 min. Take `CC1=C(C(=O)Nc2ccc(Cl)cc2)C(c2ccccc2C)n2ncc(C(=O)Nc3ccc(C)cc3)c2N1` (centres undefined): the half-life was 9.84 min. This half-life is about 3.4-fold higher than that of the molecule before. Consider `O=C1CCCC2=C1C(c1ccccc1I)N=C(Nc1nc3ccccc3o1)N2` (centres undefined), for which the half-life came out at 8.4 min.

As to `COc1ccc(-c2nc3ccccc3s2)cc1NC(=O)c1ccc(F)cc1`, the half-life was > 30 min. The molecule `CC1CCN(C(=O)c2ccc(-c3ccc(N4CCSCC4)nc3)cc2)CC1` displayed a half-life of 1.52 min.

`COC(=O)c1ccccc1C(=O)Nc1nc(-c2ccccc2)cs1` had a half-life of 3 min.

The molecule `c1c[nH]c(C2CCN(c3ncc(-c4ccc5c(c4)OCCCO5)s3)CC2)n1` displayed a half-life of 4.29 min. With `Cc1cc(-c2nnc3n2CCCCC3)c(C)n1-c1ccncc1`, the half-life is 14 min.

Consider `CC1Oc2cc3c(-c4c(O)cc(O)c5c(O)c6c(cc45)OC(C)C(C)C6=O)c(O)cc(O)c3c(O)c2C(=O)C1C` (centres undefined), for which the half-life was > 30 min. Take `CC(C)(C)OC(=O)N1CCN(c2ccc(NCc3ccc(-c4ccc(C#N)cc4)o3)cc2)CC1`: the half-life was 3.62 min. `COc1cccc(-c2nc(-c3cc4cc(OC)ccc4[nH]c3=O)no2)c1` returned a half-life of 24 min. For the molecule `N#Cc1nc(-c2cccc3ccccc23)oc1Nc1ccccc1`, the half-life was > 30 min. To `CCOC(=O)c1cc(-c2ccco2)nc2c1c(C)nn2CCC#N` belongs 3.57 min.

Regarding `O=C(O)c1ccncc1Nc1nn(CCN2CCC(F)(F)CC2)c2ccc(F)cc12`, the half-life was found to be 22.2 min. For `Cc1ccc(S(=O)(=O)Nc2cnccc2C(=O)Nc2ccc(-c3nc4ccccc4[nH]3)cc2)cc1`, the half-life came to 14 min.

In the case of `OCC(O)CCO/N=C1/C(c2c(O)[nH]c3ccccc23)=Nc2ccccc21` (centres undefined), the half-life came out at 10 min. To `CC(=O)N[C@H]1CN(C2CCN(c3ccc(F)cc3C)CC2)C[C@@H]1C1CC1` belongs 2.3 min; to `Cc1ccc(OCCn2c(CCNC(=O)N3CCCCC3)nc3ccccc32)cc1`, 1.7 min; to `Brc1ccc(-c2csc(N3CCOCC3)n2)cc1`, 2.48 min. `c1ccc(Nc2cc(-c3ccoc3)ncn2)cc1` showed a half-life of 8.6 min.

Molecule `COc1ccc(S(=O)(=O)Nc2cnccc2C(=O)Nc2nc(-c3ccccc3)cs2)cc1` displayed a half-life of 1.6 min. This half-life lies about 5.4-fold lower than the previous one.

On to `COC(=O)C1=COC(C)C2CN3CCc4c([nH]c5cc(OC)c(OC)cc45)C3CC12` (centres undefined), for which the half-life was 26.3 min. Against the preceding molecule, the half-life is about 16-fold higher. With `COc1ccc(CCN2CCC(Nc3nc4ccccc4n3Cc3ccc(F)cc3)CC2)cc1` the figure was 4.18 min; with `C#CCNC(=O)c1nc(-c2ccc([S+](C)(=O)[O-])cc2)c2cnccn12`, > 30 min; with `Nc1c(C(=O)Nc2ccc(Cl)c(C(F)(F)F)c2)sc2nc3c(cc12)N1CCC3CC1`, 22.1 min. In the case of `COc1ccc(OC)c(-n2c3c(cc(-c4nc(-c5ccc(Cl)cc5)cs4)c2=O)C(=O)CC(C)(C)C3)c1`, the half-life is > 30 min. As to `Cn1c(=O)c2c(-c3ccc(Br)cc3)n(CCc3ccccc3)cc2n(C)c1=O`, the half-life came out at 1.23 min. On to `Cc1ccc(S(=O)(=O)Nc2cnccc2C(=O)Nc2nc(-c3cnn(C)c3)cs2)cc1`, for which the half-life stood at 13 min. With `COc1cc(CNCCO)cc(Cl)c1OCc1ccc(Cl)cc1Cl` the figure was 25.5 min.
